Read-outs that look alike come from different tables or passages of the source.
Columns and labels:
SH-SY5Y cells [1] = assay: Per se toxicity, MTT reduction, SH-SY5Y cells; type: cell-based
Method: (§1) The neuroblastoma SH-SY5Y cell line was obtained from the American Type Culture Collection (ATCC-CRL-2266), maintained and cultured in a 1:1 mixture of MEM and F12 media with 10% of fetal bovine serum (FBS), according to procedures previously described. For fluorescence-based [Ca^2+]c measurements, SH-SY5Y cells were seeded in clear-bottomed, 96-well black plates at a density of 40,000 cells/well. For viability assays, SH-SY5Y cells were seeded in 48-well plates at a density of 70,000 cells/well following the procedure recently reported. Rat cortical embryonic neurons were prepared from 19-day-old embryos directly seeded in the plate well treated with poly-D-lysine in neurobasal medium (Gibco 21103, Madrid, Spain) supplemented with 1% of L-glutamine (Sigma, G6392), 0.5% of penicillin/streptomycin and 0.1% of gentamincine. In fluorescence-based [Ca^2+]c measurement, neurons were seed at clear-bottomed, 96-well black plates at a density of 30,000 cells/well. For viability assays, the rat cortical neurons were also seeded in 48-well plates at a density of 40,000 cells/well. All the biological assays were conducted under sterile conditions.
The per se toxicity of the new synthetized compounds was assessed in both cell cultures by the method of MTT reduction. […] The viability of cultures was measured 20 h later, following a procedure recently described. […]

[2] = Solubility as observed during testing; type: physicochemical
[3] = Blood-brain barrier permeation assay (PAMPA), porcine brain lipid; type: in vitro ADME; conditions: pH 7.4, threshold value of 40 nm/s, read-out: Pe, in vitro permeability (PAMPA-BBB)
Method: The parallel artificial membrane permeation assay (PAMPA) was used to predict the capacity of compounds to cross the blood–brain barrier (BBB) by passive diffusion, in a similar manner as previously described. Compounds were dissolved in 10 mM phosphate-buffered saline (PBS) buffer (pH 7.4) to the concentration of 100 µM. The filter membrane of the donor 96-well plate (Multiscreen IP sterile clear plate PDVF membrane, pore size […]) was impregnated with 4 µL of porcine brain lipid (PBL) (Avanti Polar Lipids, Inc., Alabaster, AL, USA) in dodecane (20 mg/mL), and after 5 min, 180 µL of each compound solution was added. The acceptor 96-well plate (Multiscreen, Millipore Corp. Burlington, MA, USA) was filled with 180 µL of PBS and 1% of DMSO. Finally, the donor filter plate was carefully put on the acceptor plate to form a “sandwich”, which was left undisturbed for 4 h at rt. After incubation, an UV plate reader determined the concentration of compounds in both acceptor and donor wells (150 µL/well) as the maximum absorption wavelength of each compound. Concentration of the compounds in the donor and acceptor well, and equilibrium concentration were calculated from the standard curve and expressed as the permeability (Pe), according to the following formula: logPe=logC×−ln1−drugacceptor/drugequilibrium whereC=Vdonor×Vaceptor/Vdonor+Vaceptor×Area×Time)
Results are expressed as mean ± SEM of three different experiments in duplicate.

rat cortical neurons = assay: Neuroprotection against glutamate 50 μM, MTT, rat cortical neurons; type: cell-based; conditions: compounds 10 μM
Method: as §1
(§2) The effect of compounds on the SH-SY5Y cells and rat cortical neurons viability compromised of different toxics was also evaluated by method of MTT reduction. Twenty-four hours after seeding, SH-SY5Y cells were preincubated with compounds at the concentration of 10 μM for 24 h. Afterwards, MEM/F12 medium was replaced by one fresh with 1% FBS, compounds at the same concentration, and rotenone/oligomycin A administered to media at the concentration of 30/10 μM, respectively. The cultures’ viability was measured 20 h later, following the MTT procedure recently described. As reference neuroprotective compound, melatonin 10 nM was selected. In the case of the rat cortical neurons, 7 days after seeding in 48-well plates, neurons were preincubated adding the compounds at a final concentration of 10 μM for 24 h. Then, toxic stimuli of 50 µM of glutamate was added to the wells. After 20 h, cell viability was measured by the MTT procedure. Here, the reference protective compound used was memantine (30 nM).

VGCC = assay: Blockade of 70 mM K+-evoked cytosolic Ca2+ elevation (Fluo-4/AM) in SH-SY5Y cells; type: cell-based
Method: as §1
(§3) To assess the blocking effect of compounds on the VGCC, we used SH-SY5Y cells charged with the Ca^2+-sensitive fluorescent dye Fluo-4/AM at 10 μM in Krebs-HEPES buffer, following a protocol recently described. Compounds were incubated at the desired concentrations (1, 3, 10, and 30 μM). The Ca^2+ entry was favored by addition of K^+ 70 mM to the extracellular medium. To evaluate the blocking effect of compounds on NMDA receptors, we have followed a protocol recently reported by our research group. Rat cortical neurons were charged with Fluo-4/AM at 3 μM in Krebs-HEPES buffer and compounds incubated at same concentrations than before. To stimulate Ca^2+ entry through the NMDA-sensitive glutamate receptors, NMDA was applied at 10 μM. In both cases, fluorescence oscillations as result of the [Ca^2+]c increases were real-time monitored in a multi-well fluorescence plate reader (FluoStar Optima, BMG, Germany), with excitation and emission wavelengths of 485 and 520 nm, respectively. Data were calculated as fluorescence increase (ΔF), according to the formula: ΔF=Fx−Fo /Fmax−Fmin where Fx is the maximum fluorescence obtained after Ca^2+ entry stimulation, F0 is the averaged fluorescence before, Fmax is the maximum fluorescence of the well obtained by treating cells with 5% Triton X-100, and the Fmin is the minimum fluorescence of well obtained by adding MnCl2 1 M to the previously Triton-lysed cells. The ΔF data were normalized respect to the control (ΔFc). Data are presented as percentage of blockade (100% ΔF) at the concentration of 10 μM, or as IC50, i.e., the concentration of compound capable of halving the ΔFc (%ΔF = 50).

NMDA receptors = assay: Blockade of NMDA-evoked cytosolic Ca2+ elevation (Fluo-4/AM) in rat cortical neurons; type: cell-based; conditions: for IC50: rat cortical embryonic neurons, NMDA 10 μM, compounds 1 to 30 μM, read-out: IC50, NMDA-evoked [Ca2+]c elevation
Method: as §1
as §3, with “To evaluate the blocking effect of compounds on NMDA receptors, we have followed a protocol recently reported by our research group.” left out, “(ΔFc).” for “(ΔFc). Data are presented as percentage of blockade (100% ΔF) at the concentration of 10 μM, or as IC50, i.e., the concentration of compound capable of halving the ΔFc (%ΔF = 50).”

SH-SY5Y cells [4] = assay: Neuroprotection against rotenone/oligomycin A (R/O), MTT, SH-SY5Y cells; type: cell-based; conditions: R/O 30/10 μM, compounds 10 μM
Method: as §1, §2

SMILES | melting point [°C] | Effect on cell viability of SH-SY5Y cells (per se toxicity) (SH-SY5Y cells [1]; compounds at 1, 3, 10 and 30 μM) | Solubility (observation) [2] | Effect on cell viability of SH-SY5Y cells at 30 μM (SH-SY5Y cells [1]; 30 μM) | Papp at 4 h, 100 µM [3] [×10⁻⁶ cm/s] | Protection against glutamate-elicited neurotoxicity (in words) (rat cortical neurons) | Decrease of K+-evoked Ca2+ signaling compared with nifedipine (VGCC; compounds 10 μM, nifedipine 10 μM) | IC50 (VGCC; read-out: IC50, concentration halving the 70 mM K+-evoked Ca2+ elevation, compounds 1 to 30 μM, Fluo-4/AM) [µM] | IC50 (NMDA receptors) [µM] | Mitigation of the NMDA-elicited Ca2+ increase compared with memantine (NMDA receptors; rat cortical neurons, compounds 10 μM, memantine 10 μM) | Protection against R/O-induced oxidative stress (in words) (SH-SY5Y cells [4]) | IC50 (VGCC; compounds 1 to 30 μM, Fluo-4/AM, read-out: IC50, concentration halving the 70 mM K+-evoked Ca2+ elevation) [µM]
CC(C)c1ccc(C2SCC(=O)Nc3ccc(Cl)cc32)cc1 (stereo not drawn) [compound 12, 7-Chloro-5-(4′-isopropylphenyl)-3,5-dihydro-4,1-benzothiazepin-2-(1H)-one] | 240 to 243 | did not produce a dramatic loss of cell viability | some solubility problems were appreciated | – | – | – | – | – | – | – | – | –
CC(C)c1cccc(C2SCC(=O)Nc3ccc(Cl)cc32)c1 (stereo not drawn) [compound 13, 7-Chloro-5-(3′-isopropylphenyl)-3,5-dihydro-4,1-benzothiazepin-2-(1H)-one] | 218 to 220 | – | – | remarkable cytotoxic profile | – | – | – | – | – | – | – | –
CC(C)c1ccccc1C1SCC(=O)Nc2ccc(N(C)C)cc21 (stereo not drawn) [compound 21, 7-Dimethylamino-5-(2′-isopropylphenyl)-3,5-dihydro-4,1-benzothiazepin-2-(1H)-one] | 108 to 112 | – | – | – | > 4 | statistically significant dissipation of the glutamate-elicited neurotoxicity | in a similar manner or even better than the reference compound nifedipine | 5.4 | 6.2 | noticeable mitigation of the NMDA-elicited Ca^2+ increase, even higher than that exerted by the reference compound memantine | clear trend to protect against oxidative stress | –
O=C1CSC(c2ccccc2)c2cnccc2N1 (stereo not drawn) [compound 38, 5-Phenyl-3,5-dihydropyrido[4,3-e][1,4]thiazepin-2-(1H)-one] | 138 to 143 | – | – | – | – | nicely recovered cell viability | – | – | > 30 | – | neuroprotective profile against oxidative stress | 28.5
